Values of other authors, collected in US9345804B2, “S-nitrosothiol-generating skin dressings” (Insense Limited, priority 2007, dated 2016).

What was measured:
[1] = at 25° C.
[2] = under normal conditions

| Compound | pKa [1] | time to almost complete decomposition [2] |
| --- | --- | --- |
| O=NO [nitrite] | 3.4 |  |
| nitrosoglycerol |  | hours/days |
